Source: the supplement of paper PMC10307832

What was measured:
Test in all cases: relative viability (nuclei count vs DMSO), 5 days (fraction); higher = more cells survive
Kobe2602 + Decitabine = compound: C1=CC(=CC=C1NC(=S)NNC2=C(C=C(C=C2[N+](=O)[O-])C(F)(F)F)[N+](=O)[O-])F [Kobe2602] + Nc1ncn([C@H]2C[C@H](O)[C@@H](CO)O2)c(=O)n1 [Decitabine] (partner 2 µM)
How it was run: (§1)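 For relative viability, nuclei counts in treated wells were divided by those in vehicle wells. Lung cancer cell lines had been pin-tool dosed in 1536-well plates the day after seeding and cultured for 5 days, then fixed and stained in one step (final 0.05% Triton X-100, 1% formaldehyde, 1 ug/ml Hoechst) and imaged at 4×. Doses were one drug alone or a fixed anchor-drug dose plus five library-drug doses (not always all listed) in √10 steps, and values are duplicate-plate medians.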

Kobe2602 + Pemetrexed = compound: C1=CC(=CC=C1NC(=S)NNC2=C(C=C(C=C2[N+](=O)[O-])C(F)(F)F)[N+](=O)[O-])F [Kobe2602] + Nc1nc2[nH]cc(CCc3ccc(C(=O)N[C@@H](CCC(=O)O)C(=O)O)cc3)c2c(=O)[nH]1 [Pemetrexed] (partner 0.2 µM)
How it was run: as §1

Kobe2602 + AZD7762 = compound: C1=CC(=CC=C1NC(=S)NNC2=C(C=C(C=C2[N+](=O)[O-])C(F)(F)F)[N+](=O)[O-])F [Kobe2602] + NC(=O)Nc1cc(-c2cccc(F)c2)sc1C(=O)N[C@H]1CCCNC1 [AZD7762] (partner 0.2 µM)
How it was run: as §1

Zosuquidar + Trametinib = compound: O[C@@H](COc1cccc2ncccc12)CN1CCN([C@@H]2c3ccccc3[C@@H]3[C@H](c4ccccc42)C3(F)F)CC1 [Zosuquidar] + CC(=O)Nc1cccc(-n2c(=O)n(C3CC3)c(=O)c3c(Nc4ccc(I)cc4F)n(C)c(=O)c(C)c32)c1 [Trametinib] (partner 0.02 µM)
How it was run: as §1

Cell Line	relative viability (Kobe2602 + Decitabine; first compound 0.2 µM)	relative viability (Kobe2602 + Decitabine; first compound 0.6325 µM)	relative viability (Kobe2602 + Decitabine; first compound 2 µM)	relative viability (Kobe2602 + Decitabine; first compound 6.325 µM)	relative viability (Kobe2602 + Decitabine; first compound 20 µM)	relative viability (Kobe2602 + Pemetrexed; first compound 0.2 µM)	relative viability (Kobe2602 + Pemetrexed; first compound 0.6325 µM)	relative viability (Kobe2602 + Pemetrexed; first compound 2 µM)	relative viability (Kobe2602 + Pemetrexed; first compound 6.325 µM)	relative viability (Kobe2602 + Pemetrexed; first compound 20 µM)	relative viability (Kobe2602 + AZD7762; first compound 0.2 µM)	relative viability (Kobe2602 + AZD7762; first compound 0.6325 µM)	relative viability (Kobe2602 + AZD7762; first compound 2 µM)	relative viability (Kobe2602 + AZD7762; first compound 6.325 µM)	relative viability (Kobe2602 + AZD7762; first compound 20 µM)	relative viability (Zosuquidar + Trametinib; first compound 0.01 µM)	relative viability (Zosuquidar + Trametinib; first compound 0.03162 µM)	relative viability (Zosuquidar + Trametinib; first compound 0.1 µM)	relative viability (Zosuquidar + Trametinib; first compound 0.3162 µM)	relative viability (Zosuquidar + Trametinib; first compound 1 µM)
201T	0.89	0.892	0.872	0.949	0.876	0.353	0.366	0.341	0.379	0.288	0.614	0.619	0.603	0.611	0.799	0.731	0.742	0.684	0.691	0.719
A549	0.228	0.266	0.414	0.251	0.247															
A-427	0.589	0.628	0.51	0.539	0.616	0.993	1.08	0.963	0.956	0.902	0.784	0.809	0.808	0.812	0.939	0.795	0.871	0.77	0.82	0.741
ABC-1	1.11	1.31	1.05	1.18	1.16						0.85	1	0.939	0.882	0.646					
BEN	0.707	0.734	0.709	0.711	0.92	0.736	0.803	0.724	0.846	0.98	0.74	0.73	0.74	0.651	0.691	1.21	1.16	0.885	0.999	0.927
CAL-12T						1.2	1.14	1.24	1.1	1.14	0.644	0.736	0.568	0.609	0.506	0.327	0.449	0.262	0.442	0.32
COR-L23	0.455	0.462	0.409	0.468	0.515	0.209	0.2	0.212	0.204	0.204						0.573	0.639	0.507	0.811	0.505
COR-L 105	0.706	0.679	0.473	0.739	0.602	1.01	1.27	0.923	1.15	1.16						0.459	0.435	0.408	0.266	0.481
ChaGo-K-1	0.538	0.524	0.512	0.469	0.481	0.27	0.26	0.267	0.267	0.266	0.891	0.836	0.878	0.892	0.872	0.893	0.922	0.874	0.943	0.897
EKVX	0.337	0.377	0.349	0.43	0.385	0.416	0.394	0.404	0.41	0.408	0.724	0.701	0.736	0.722	0.865	0.33	0.415		0.359	0.335
EMC-BAC-2	0.973	0.961	0.961	1.01	0.973	0.459	0.453	0.445	0.492	0.457	1.14	1.16	1.06	1.21	1.16	0.92	0.988	0.842	1.02	0.883
EPLC-272H	0.341	0.381	0.411	0.319	0.395	0.353	0.35	0.301	0.318	0.279	0.349	0.212	0.187	0.24	0.282	0.285	0.274	0.278	0.276	0.285
H3255	0.554	0.719	0.57	0.634	0.653	0.549	0.544	0.57	0.629	0.584	0.868	0.956	0.868	0.775	0.864	0.58	0.581	0.525	0.638	0.632
HARA	0.566	0.591	0.5	0.537	0.499	0.228	0.296	0.255	0.239	0.313	0.304	0.266	0.477	0.356	0.379	0.833	0.938	0.772	1.03	0.541
HCC-15	0.662	0.649	0.537	0.627	0.62	0.238	0.216	0.223	0.229	0.211	1.03	1.2	1.02	1.17	1.43	0.393	0.374	0.345	0.397	0.38
HCC-44	0.993	0.894	0.897	0.896	0.91	0.595	0.684	0.653	0.671	0.609	0.951	0.952	1.04	0.982	0.892	1.01	0.999	0.96	1.09	1.13
HCC-78	0.65	0.711	0.6	0.724	0.727	0.891	0.923	0.699	0.868	0.844	0.7	0.675	0.748	0.588	0.774	0.799			1	0.759
HCC-366	0.31	0.337	0.333	0.34	0.36	0.157	0.179	0.16	0.146	0.328	0.22	0.269	0.312	0.183	0.421	0.324	0.35	0.367	0.46	0.259
HCC-827	0.354	0.266	0.355	0.325	0.404	0.293	0.241	0.281	0.261	0.261	0.217	0.223	0.349	0.242	0.339	0.539	0.486	0.476	0.535	0.529

Cell Line	relative viability (Kobe2602 + Decitabine; first compound 0.2 µM)	relative viability (Kobe2602 + Decitabine; first compound 0.6325 µM)	relative viability (Kobe2602 + Decitabine; first compound 2 µM)	relative viability (Kobe2602 + Decitabine; first compound 6.325 µM)	relative viability (Kobe2602 + Decitabine; first compound 20 µM)	relative viability (Kobe2602 + Pemetrexed; first compound 0.2 µM)	relative viability (Kobe2602 + Pemetrexed; first compound 0.6325 µM)	relative viability (Kobe2602 + Pemetrexed; first compound 2 µM)	relative viability (Kobe2602 + Pemetrexed; first compound 6.325 µM)	relative viability (Kobe2602 + Pemetrexed; first compound 20 µM)	relative viability (Kobe2602 + AZD7762; first compound 0.2 µM)	relative viability (Kobe2602 + AZD7762; first compound 0.6325 µM)	relative viability (Kobe2602 + AZD7762; first compound 2 µM)	relative viability (Kobe2602 + AZD7762; first compound 6.325 µM)	relative viability (Kobe2602 + AZD7762; first compound 20 µM)	relative viability (Zosuquidar + Trametinib; first compound 0.01 µM)	relative viability (Zosuquidar + Trametinib; first compound 0.03162 µM)	relative viability (Zosuquidar + Trametinib; first compound 0.1 µM)	relative viability (Zosuquidar + Trametinib; first compound 0.3162 µM)	relative viability (Zosuquidar + Trametinib; first compound 1 µM)
HOP-62	0.236	0.203	0.201	0.251	0.243	0.43	0.336	0.312	0.323	0.316	0.635	0.529	0.667	0.447	0.537	0.384	0.404	0.393	0.396	0.37
LC-2-ad	0.664	0.888	0.943	0.825	0.815	0.292	0.296	0.285	0.275	0.264	0.822	0.879	0.85	0.833	0.828	0.91	0.901	0.812	0.92	0.911
LCLC-97TM1	0.234	0.229		0.242	0.28	0.204	0.15		0.14	0.161	0.364	0.303	0.341	0.279	0.37	0.171	0.19		0.21	0.206
LCLC-103H	0.744	0.703	0.79	0.778	0.718	0.494	0.502	0.454	0.438	0.449	0.76	0.842	0.791	0.848	0.81	0.679	0.654	0.679	0.676	0.622
LK-2	0.379	0.293	0.283	0.313	0.442	0.259	0.188	0.279	0.248	0.328	0.464	0.385	0.427	0.302	0.553	0.822	0.794	0.735	0.825	0.89
LOU-NH91	0.794	0.895	0.801	0.809	0.826	0.351	0.361	0.379	0.391	0.392	0.739	0.792	0.717	0.758	0.716	0.782	0.809	0.695	0.808	0.785
LU99A	0.913	1.01	0.746	0.955	0.859	0.179	0.169	0.186	0.207	0.163	0.356	0.381	0.31	0.279	0.356	0.55	0.597	0.522	0.537	0.551
NCI-H520	0.543	0.616	0.563	0.526	0.48	0.709	0.675	0.559	0.724	0.772						0.71	0.938	0.598	0.798	0.68
NCI-H661	0.564	0.598	0.589	0.561	0.612	0.893	0.947	0.913	0.932	0.924						0.614	0.549	0.531	0.599	0.546
NCI-H727	0.854	0.765	0.97		1.13						0.57	0.519	0.532		0.644	0.391	0.378		0.394	0.383
NCI-H1563						0.846	0.717	0.611	0.786	0.847										
NCI-H1650	0.42	0.473	0.381	0.338	0.366	0.394	0.355	0.363	0.335	0.374						0.488	0.577	0.702	0.661	0.601
NCI-H1703												0.13	0.111		0.173					
NCI-H2009	0.358	0.414	0.405	0.394	0.372	1.02	1.03	1.09	1.02	0.979						0.273	0.208	0.239	0.285	0.263
NCI-H2023	0.232	0.218	0.207	0.199	0.196	0.218	0.255	0.194	0.211	0.0788						0.595	0.669	0.574	0.702	0.596
NCI-H2228						0.369	0.356	0.339	0.344	0.35						0.438	0.441	0.423	0.57	0.505
SK-LU-1	0.672	0.702	0.631	0.581	0.64	0.969	0.978	1.02	0.963	0.953						0.506	0.578	0.488	0.489	0.519
SK-MES-1	0.411	0.378	0.335	0.396	0.321	0.917	0.946	0.934	0.868	0.534						0.616	0.494	0.535	0.563	0.549
SW 1573	0.483	0.614	0.453	0.493	0.318	0.786	0.96	0.82	0.84	0.598						0.613	0.605	0.549	0.628	0.544
